# Peptide text beside a SMILES is read from it.
# Legend:
# CXCR4 = molecular target: T1, CXCR4 (Homo sapiens, UniProt P61073); assay: CXCR4 membrane expression (flow cytometry); format: cell-based; details: human cord blood CD34+ cells, 1 or 10 μM, 3 hrs
# T1 construct: endogenous in cells; host or cells: human cord blood CD34+ cells, human pre-B-ALL G2 cells, U937 and HL-60 cells
# Procedure: FIGS. 10A-10C. TL-1 and cTL1 down-regulate CXCR4 expression on human cord blood CD34^+ and G2 cells. Human cord blood CD34^+ and G2 cells were incubated with 1 or 10 μM TL-1 or cyclic TL-1 for 3 hrs or left untreated (UT), washed, stained with CXCR4 and CCR5 Ab and analyzed by flow cytometry. Representative histograms from 3 separate experiments are shown. FIG. 10A—effect of TL-1 on CXCR4 expression. FIG. 10B—effect of cTL-1 on CXCR4 expression. FIG. 10C—effects of TL-1 and cTL-1 on CCR5 expression.
# (§1) Various cell types (1×10^6/mL) were pretreated with the peptides for 3 hrs as described above, washed and then stained in staining buffer (PBS supplemented with 0.5% FCS and 0.01% sodium azide) with mouse anti-human CXCR4-PE, CCR5-FITC (R&D Systems, Minneapolis, Minn.) or CD45-FITC (ImmunoQuality Products, Groningen, The Netherlands) mAbs for 30 min at 4° C. and analyzed by flow cytometry as described (Kalinkovich, A., et al., 2006). Appropriate IgG were used as the isotype controls.
# (§2) Recently, it has been shown that HBD3 could induce internalization of CXCR4 but not of CCR5 in the CEM T cells expressing both CXCR4 and CCR5 (Feng, Z. et al., 2006) implying CXCR4 specificity in HBD3 action.
# CD45 = CD45 membrane expression (flow cytometry); format: cell-based, human; details: tested cells, 3 hrs preincubation
# Procedure: as §1, §2
# C57BL/6 mice [1] = assay: Mobilization assay: hematopoietic progenitor cells (CFU from PB MNC); format: in vivo, mouse
# Procedure: FIG. 3. Dose-response effect of TL-1 and AK-1 on mobilization of hematopoietic progenitor cells to peripheral blood. C57BL/6 mice were s.c. injected with 1, 5 or 10 mg/kg of TL-1 or AK-1. Control mice were injected with PBS. After 1-1.5 h, mice were sacrificed, peripheral blood mononuclear cells (PB MNC) were separated by Ficoll, seeded into the methylcellulose, and the number of colony-forming units (CFU) was estimated. Data shown are the number of CFU per 2×10^5 seeded PB MNC cells. Vertical bars represent standard deviation of duplicate experiments. *P<0.05 compared to control.
# FIG. 5. TL-1 synergizes with G-CSF to mobilize hematopoietic progenitor cells to peripheral blood. C57BL/6 mice were s.c. injected with 5 mg/kg of AMD3100 (AMD), TL-1, AK-1, TL-1+AMD3100, or AK-1+AMD3100. Other mice were injected with G-CSF, alone or with TL-1 or AMD3100. Control mice were injected with PBS. After 1-1.5 h, mice were sacrificed, peripheral blood mononuclear cells (PB MNC) were separated by Ficoll, seeded into the methylcellulose, and the number of colony-forming units (CFU) was estimated. Data shown are the number of CFU per 2×10^5 seeded PB MNC cells. Vertical bars represent standard deviation of duplicate experiments. *P<0.05 compared to control.
# C57BL/6 mice were injected s.c. with PBS (control), 5 mg/kg AMD3100, or one of the peptides TL-1, cyclic TL-1 and AK-1, at various doses. Another group of mice was s.c. injected with 5 mg/kg AMD3100 together with TL-1, or cyclic TL-1, or AK-1 (all peptides at 5 mg/kg), 1-1.5 hr before sacrifice. An additional group of mice was s.c. injected with-G-CSF at a dose of 5 μg/mouse once a day for 5 days. Mice were sacrificed 4 hrs post last G-CSF injection; 1-1.5 before sacrifice, mice were injected with TL-1, cyclic TL-1 or AK-1, all at 5 mg/kg. Peripheral blood (PB) was collected from mice by cardiac puncture into heparin containing tubes and the number of white blood cells (WBC) per 1 mL of blood was calculated. The tubes were centrifuged, plasma was collected and kept at −20° C. until tested. In order to evaluate the number of progenitor cells, PB mononuclear cells were isolated using Ficoll gradient centrifugation, and seeded (2×10^5 cells/plate) in methylcellulose with cytokines as described (Spiegel, A., et al., 2004, Goichberg, P., et al., 2006). Colonies, reflecting colony-forming units (CFU), were scored after 7 days.
# In the same experiments, blood mononuclear cells were collected and tested for the presence of colony-forming cells reflecting the number of HPC.
# C57BL/6 mice [2] = assay: Mobilization assay: WBC number in peripheral blood; format: in vivo, mouse
# Procedure: FIG. 2. Dose-response effect of TL-1 and AK-1 on mobilization of WBC. C57BL/6 mice were s.c. injected with 1, 5 or 10 mg/kg of TL-1 or AK-1. Control mice were injected with phosphate buffered saline (PBS). After 1-1.5 h, mice were sacrificed and WBC number in the PB was calculated. Data shown are the mean±SD of 3 separate experiments. *P<0.05 compared to control.
# FIG. 4. TL-1 synergizes with G-CSF to mobilize WBC. C57BL/6 mice were s.c. injected with G-CSF 2.5 μg/twice a day for four days. Eighteen hrs after the last injection mice were s.c. injected with 5 mg/kg of either TL-1, AK-1 or AMD3100 (AMD), sacrificed 1.5 h later, and the number of WBC was calculated. Control mice were injected with PBS or with TL-1, AK-1 or AMD3100 without pre-treatment with G-CSF. […]
# C57BL/6 mice were injected s.c. with PBS (control), 5 mg/kg AMD3100, or one of the peptides TL-1, cyclic TL-1 and AK-1, at various doses. […] Peripheral blood (PB) was collected from mice by cardiac puncture into heparin containing tubes and the number of white blood cells (WBC) per 1 mL of blood was calculated. […] Colonies, reflecting colony-forming units (CFU), were scored after 7 days.
# The cell mobilizing potential of the peptides was examined in intact C57BL/6 mice, using the protocol applied for AMD3100 (Broxmeyer, H. E., et al., 2005). First, the effect of different doses of the peptides was evaluated. […]
# T1 sequence (P61073 whole entry): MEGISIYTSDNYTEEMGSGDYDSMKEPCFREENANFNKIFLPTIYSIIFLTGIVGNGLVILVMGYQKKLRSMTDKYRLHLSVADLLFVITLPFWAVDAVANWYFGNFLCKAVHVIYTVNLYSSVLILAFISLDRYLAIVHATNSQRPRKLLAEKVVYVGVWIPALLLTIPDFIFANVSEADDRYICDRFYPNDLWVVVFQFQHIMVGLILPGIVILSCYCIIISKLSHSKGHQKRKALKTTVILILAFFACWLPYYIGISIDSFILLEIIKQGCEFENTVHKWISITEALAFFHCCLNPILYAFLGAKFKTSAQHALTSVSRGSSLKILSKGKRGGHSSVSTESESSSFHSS
smiles,measurement,setting,value
"N=C(N)NCCC[C@@H]1NC(=O)CNC(=O)[C@H](CCCNC(=N)N)NC(=O)[C@H](CCCCN)NC(=O)[C@H](CCCCN)NC(=O)[C@H](CCCNC(=N)N)NC(=O)[C@H](CCCNC(=N)N)NC(=O)[C@H](CS)NC(=O)[C@H](CS)NC(=O)[C@H](CCCCN)NC1=O [cyclic TL-1, 1,10-cyclo[RGRKCCRRKK]] (cyclo(CCRRKKRGRK))",CXCR4 expression,CXCR4,decreased CXCR4 expression
same,membrane expression of CD45,CD45,either unaffected or slightly increased
same,HPC mobilization (colony-forming cells),C57BL/6 mice [1]; 1 mg/kg s.c.,did not induce mobilization of HPC
same,HPC mobilization in combination with AMD3100,C57BL/6 mice [1]; 5 mg/kg each,inhibited AMD3100-induced mobilization
same,"HPC mobilization, peptide alone in the comparison/combination experiments",C57BL/6 mice [1]; 5 mg/kg s.c.,inhibitory effect
same,HPC mobilization (colony-forming cells),"C57BL/6 mice [1]; 5 mg/kg s.c., dose response experiments",did not induce mobilization of HPC
same,HPC mobilization (colony-forming cells),C57BL/6 mice [1]; 10 mg/kg s.c.,inhibitory effect
same,WBC mobilization upon simultaneous injection with AMD3100,C57BL/6 mice [2]; 5 mg/kg s.c. each,decreased its mobilizing capacity
same,"WBC mobilization, dose response","C57BL/6 mice [2]; all tested doses: 1, 5 and 10 mg/kg s.c.",did not induce WBC mobilization

# Source: patent US9567371B2, “Short beta-defensin-derived peptides” (Yeda Research and Development Co. Ltd., priority 2009, dated 2017)
